Data: patent publication US7875601B2, “Cancer treatment with epothilones” (Novartis AG, priority 1998, dated 2011)
Entries after “also recorded” stand apart in the source; their conditions may differ. Like-named read-outs stand apart in the source and are kept apart here.

Key:
[1] = Determination of the single i.v. dose MTD in female BALB/c nude mice; format: in vivo
Procedure: The Maximal Tolerated Dose (MTD) is determined according to standard procedures; preferably, in warm-blooded animals the MTD in case of oral or intravenous administration is determined as the Dose of a single administration where no death occurs and a loss of body weight of less than 40, preferably less than 25, percent (%) is found in the treated warm-blooded animal individual (this term here mainly referring to an animal; for humans see below).
For the MTD determination, female BALB/c nude mice or BALB/c mice (obtained from Novartis Animal Farm, Sisseln, Switzerland) are treated once intravenously with epothilone B (n=3 per dose group). The dosage is increased (2, 4, 6, 8, 10 and 12 mg/kg) and the mice are observed for the presentation of overt toxic effects for 10 days after drug treatment.

[2] = tested on: human COLO 205 colon tumors; format: in vivo, female BALB/c nude mice; conditions: 4 mg/kg, day 32
Procedure: Female or male BALB/c nu/nu (nude) mice are kept under sterile conditions (10 to 12 mice per Type III cage) with free access to food and water. Mice weigh between 20 and 25 grams at the time of tumor implantation. Tumors are established by subcutaneous injection of cells (minimum 2×10^6 cells in 100 μl PBS or medium) in carrier mice (4-8 mice per cell line). The resulting tumors are serially passaged for a minimum of three consecutive transplantations prior to start of treatment. Tumor fragments (approx. 25 mg) are implanted s.c. into the left flank of animals with a 13-gauge trocar needle while the mice are exposed to Forene (Abbott, Switzerland) anesthesia.
Tumor growth and body weights are monitored once or twice weekly. All treatments are administered intravenously (i.v.) and are initiated when a mean tumor volume of approximately 100 to 250 mm^3 is attained, depending upon the tumor type. Tumor volumes are determined using the formula […] (see Cancer Chemother. Pharmacol. 24:148-154, [1989]). Treatments with epothilone B vary the dose and the frequency of administration. Comparator agents are administered according to previously determined optimal treatment regimens. In addition to presenting changes in tumor volumes over the course of treatment, antitumor activity is expressed as T/C % (mean increase of tumor volumes of treated animals divided by the mean increase of tumor volumes of control animals multiplied by 100). Tumor. regression (%) represents the smallest mean tumor volume compared to the mean tumor volume at the start of treatment, according to the formula Regression (%)=(1−Vend/Vstart)×100(Vend=final mean tumor volume, Vstart=mean tumor volume at the start of treatment. Any animals in which the tumor has reached a size exceeding approximately 1.5 to 2.5 cm^3 are sacrificed. Details can be found below.

ZR-75-1 (Breast) = assay: Antiproliferative assay, ZR-75-1; format: cell-based, human; conditions: ZR-75-1, 5 d exposure, mean ± SD, n = 3; read-out: IC50 for growth inhibition
Procedure: Antiproliferative assays are performed as previously described (Int. J. Cancer 43, 851-6 (1989)). Briefly, cells are seeded at 1.5×10^3 cells/well into 96-well microtiter plates and incubated overnight. Compounds are added in serial dilutions on day 1. The plates are then incubated for an additional 2 to 5 days, allowing for at least one cell doubling (cell line dependent), after which the cells are fixed with 3.3% v/v glutaraldehyde, washed with water and stained with 0.05% w/v methylene blue. After washing, the dye is eluted with 3% v/v HCl and the optical density measured at 665 nm with a SpectraMax 340 (Bucherer, Basel, Switzerland). IC50 values are determined by a computerized system (SoftPro, Bucherer, Basel, Switzerland) using the formula (OD test−OD start)/(OD control−OD start)×100. IC50 is defined as the drug concentration which leads to 50% of cells per well compared to control cultures (100%) at the end of incubation period.

[3] = Two-week intravenous toxicity study in mice; format: in vivo, normal female BALB/c mice
Procedure: In order to assess the sub-chronic intravenous toxicity of epothilone B, a non-GLP two-week i.v. toxicity study in non-tumor bearing, normal female BALB/c mice is conducted, involving analysis of mortality, clinical signs, body weight, food consumption, hematology, clinical biochemistry, urinalysis, and organ weights as well as macro and microscopic examinations. The study is based on two different dosing regiments of epothilone B of 3 mg/kg and 10 mg/kg, respectively, administered on days 1 and 8 (8 animals per group). Half of the animals are killed on day 15 (main group) and necropsy is performed. For the other half (recovery group) a recovery period of 5 weeks is allowed after administration of the second dose before sacrifice and subsequent necropsy on day 43.

[4] = 3 mg/kg i.v. on days 1 and 8, day 15
[5] = 10 mg/kg i.v. on days 1 and 8, day 15
[6] = both dose levels (3 and 10 mg/kg), day 15

**Q.** For `C/C(=C\c1csc(C)n1)[C@@H]1C[C@@H]2O[C@]2(C)CCC[C@H](C)[C@H](O)[C@@H](C)C(=O)C(C)(C)[C@@H](O)CC(=O)O1` [epothilone B], which “Body Weight % Change” value ([1]; 2 mg/kg single i.v. bolus) is on record?
**A.** 4.2 ± 2.1%

**Q.** What about the “Body Weight Δ (mean g ± SD)” value ([1]; 2 mg/kg single i.v. bolus) of the same molecule?
**A.** 1.0 ± 0.5 g

**Q.** And the Mortalities ([1]; 2 mg/kg single i.v. bolus)?
**A.** 0/3

**Q.** And the “Body Weight % Change” value ([1]; 4 mg/kg single i.v. bolus)?
**A.** −1.7 ± 2.9%

**Q.** What about the “Body Weight Δ (mean g ± SD)” value ([1]; 4 mg/kg single i.v. bolus) of the same molecule?
**A.** -0.4 ± 0.6 g

**Q.** What about the Mortalities ([1]; 4 mg/kg single i.v. bolus) of the same molecule?
**A.** 0/3

**Q.** And the “Body Weight % Change” value ([1]; 6 mg/kg single i.v. bolus)?
**A.** −4.2 ± 2.1%

**Q.** What about the “Body Weight Δ (mean g ± SD)” value ([1]; 6 mg/kg single i.v. bolus) of the same molecule?
**A.** -1.0 ± 0.5 g

**Q.** And the Mortalities ([1]; 6 mg/kg single i.v. bolus)?
**A.** 0/3

**Q.** What about the “Body Weight % Change” value ([1]; 8 mg/kg single i.v. bolus) of the same molecule?
**A.** −16.8 ± 12.2%

**Q.** And the “Body Weight Δ (mean g ± SD)” value ([1]; 8 mg/kg single i.v. bolus)?
**A.** -3.8 ± 2.7 g

**Q.** And the Mortalities ([1]; 8 mg/kg single i.v. bolus)?
**A.** 1/3

**Q.** What about the “Body Weight % Change” value ([1]; 10 mg/kg single i.v. bolus) of the same molecule?
**A.** −23.7 ± 13.6%

**Q.** And the “Body Weight Δ (mean g ± SD)” value ([1]; 10 mg/kg single i.v. bolus)?
**A.** -5.6 ± 3.3 g

**Q.** What about the Mortalities ([1]; 10 mg/kg single i.v. bolus) of the same molecule?
**A.** 1/3

**Q.** And the “Body Weight % Change” value ([1]; 12 mg/kg single i.v. bolus)?
**A.** −22.9 ± 3.1%

**Q.** And the “Body Weight Δ (mean g ± SD)” value ([1]; 12 mg/kg single i.v. bolus)?
**A.** -5.1 ± 0.6 g

**Q.** What about the Mortalities ([1]; 12 mg/kg single i.v. bolus) of the same molecule?
**A.** 3/3

**Q.** What about the MTD ([1]; single dose i.v., nude mice) of the same molecule?
**A.** 6 mg/kg

**Q.** What about the T/C ([2]; i.v. every 7 days (days 14, 21, 28)) of the same molecule?
**A.** Regressions

**Q.** And the “% Body Weight Change” value ([2]; i.v. every 7 days)?
**A.** −18 ± 1%

**Q.** And the Regression ([2]; i.v. every 7 days)?
**A.** −87%

**Q.** And the “Survival (No. alive/total)” value ([2]; i.v. every 7 days)?
**A.** 5/7

**Q.** What about the “Δ Body Weight” value ([2]; i.v. every 7 days) of the same molecule?
**A.** -4.0 ± 0.2 g

**Q.** And the “Δ Tumor Volume (mm^3)” value ([2]; i.v. every 7 days)?
**A.** −83 ± 7 mm^3

**Q.** What about the T/C ([2]; i.v. every 14 days (days 14 and 28)) of the same molecule?
**A.** Regressions

**Q.** What about the “% Body Weight Change” value ([2]; i.v. every 14 days) of the same molecule?
**A.** −4 ± 4%

**Q.** What about the Regression ([2]; i.v. every 14 days) of the same molecule?
**A.** −69%

**Q.** And the “Survival (No. alive/total)” value ([2]; i.v. every 14 days)?
**A.** 7/7

**Q.** What about the “Δ Body Weight” value ([2]; i.v. every 14 days) of the same molecule?
**A.** -1.1 ± 1.0 g

**Q.** What about the “Δ Tumor Volume (mm^3)” value ([2]; i.v. every 14 days) of the same molecule?
**A.** −62 ± 7 mm^3

**Q.** And the “% Body Weight Change” value ([2]; i.v. once)?
**A.** 9 ± 1%

**Q.** What about the Regression ([2]; i.v. once) of the same molecule?
**A.** −66%

**Q.** And the “Survival (No. alive/total)” value ([2]; i.v. once)?
**A.** 5/7

**Q.** What about the T/C ([2]; i.v. once) of the same molecule?
**A.** Regressions

**Q.** What about the “Δ Body Weight” value ([2]; i.v. once) of the same molecule?
**A.** 2.0 ± 0.1 g

**Q.** What about the “Δ Tumor Volume (mm^3)” value ([2]; i.v. once) of the same molecule?
**A.** −58 ± 11 mm^3

**Q.** What about the IC50 (ZR-75-1 (Breast)) of the same molecule?
**A.** 0.64 ± 0.42 nM

**Q.** What about the body weight loss ([3]; 3 mg/kg i.v. on days 1 and 8) of the same molecule?
**A.** only apparent in the second week

**Q.** What about the “atrophy of the thymus” value [3, 4] of the same molecule?
**A.** moderate

**Q.** And the “number of leukocytes, especially neutrophils and lymphocytes” value [3, 4]?
**A.** reduction in the number of leukocytes

**Q.** And the “sternal bone marrow histology” value [3, 4]?
**A.** minimal to slight erythroid and myeloid atrophy

**Q.** What about the “organ weights at the end of the recovery period” value ([3]; 3 mg/kg i.v. on days 1 and 8, day 43) of the same molecule?
**A.** comparable to those of control animals

**Q.** And the “mortalities throughout the treatment period” value ([3]; 3 mg/kg i.v. on days 1 and 8, days 1-14)?
**A.** No mortalities

**Q.** And the “survival of the recovery group” value ([3]; 3 mg/kg i.v. on days 1 and 8, up to day 43)?
**A.** all animals of the recovery group survive until the end of the study; also recorded: tolerated without mortality

**Q.** And the “hematological parameters at the end of the recovery period” value ([3]; 3 mg/kg recovery group, day 43)?
**A.** normal for two out of the four animals

**Q.** What about the “survival of the recovery group” value ([3]; 10 mg/kg i.v. on days 1 and 8) of the same molecule?
**A.** all animals of the recovery group have to be sacrificed prematurely on day 19; also recorded: death (or sacrifice) of all treated animals

**Q.** What about the “atrophy of the thymus” value [3, 5] of the same molecule?
**A.** marked

**Q.** And the “number of leukocytes, especially neutrophils and lymphocytes” value [3, 5]?
**A.** reduction in the number of leukocytes

**Q.** What about the spleen histology [3, 5] of the same molecule?
**A.** minimal lymphoid atrophy

**Q.** What about the “sternal bone marrow histology” value [3, 5] of the same molecule?
**A.** minimal to slight myeloid hypoplasia

**Q.** What about the “mortalities throughout the treatment period” value ([3]; 10 mg/kg i.v. on days 1 and 8, days 1-14) of the same molecule?
**A.** No mortalities

**Q.** And the body weight loss ([3]; 10 mg/kg i.v. on days 1 and 8, first and second week)?
**A.** Body weight loss is observed for all animals

**Q.** And the clinical chemistry profile ([3]; 3 and 10 mg/kg i.v. on days 1 and 8)?
**A.** Only minor changes

**Q.** What about the “intestinal mucosa (small and large intestine) histology” value [3, 6] of the same molecule?
**A.** Minimal single cell necrosis

**Q.** What about the organ weights [3, 6] of the same molecule?
**A.** pronounced changes in thymus, spleen, and uterus weights
